Assay results reported in paper PMC4981717, “Lcp1 Is a Phosphotransferase Responsible for Ligating Arabinogalactan to Peptidoglycan in Mycobacterium tuberculosis” (mBio, 2016).
Several values for one entry are separate records, joined by “and”; a condition that tells them apart may be missing. Equal values may be shown once. Entries after “also recorded” stand apart in the source; their conditions may differ.

Biological target: ^MtbLcp1 (Mycobacterium tuberculosis, UniProt P96872)
Assay: Intrinsic tryptophan fluorescence (ITF) ligand binding of linker unit analogues to recombinant ^MtbLcp1
Settings: for Bmax: ITF saturation binding, change in fluorescence emission at λ = 341 nm; for Kd: ITF, single-site saturation model, 25°C, 0.026 µM ^MtbLcp1, λ = 341 nm, read-out: equilibrium dissociation constant, KD
Description: Intrinsic tryptophan fluorescence (ITF) ligand binding experiments of ^MtbLcp1 with saccharide ligands were conducted on a Hitachi F7000 fluorescence spectrophotometer with the temperature thermostatically regulated to 25°C. ^MtbLcp1 was diluted to 0.026 µM with dialysis buffer, and fluorescence spectra were measured at an excitation wavelength of 280 nm and emission wavelength of 300 to 400 nm with an excitation and emission slit width of 5 nm using a 500-µl crystal cuvette. ITF maximum (Femission^max) was recorded at λ = 341 nm, providing a basal Femission coordinate for the collection of subsequent ITF data. Increasing concentrations of ligands representing the linker unit (compounds 1 to 4) were added to the cuvette. The change in fluorescence emission (ΔFemission) was calculated by subtracting Femission (recorded 2 min after each ligand addition) from Femission^max. Changes of background fluorescence observed upon addition of equivalent volumes of dialysis buffer (the solvent in which compounds 1 to 4 were dissolved) were subtracted from the overall change in fluorescence, and the data were then plotted against ligand concentration, [L] (3 independent biological experiments). A plot of ΔFemission at λ = 341 nm versus [L] was fitted to a one-site specific binding equation using GraphPad Prism 5 software: ΔFemission = Fmax × [L]/(KD + [L]).

^MtbLcp1, sequence (P96872 entry or part of it): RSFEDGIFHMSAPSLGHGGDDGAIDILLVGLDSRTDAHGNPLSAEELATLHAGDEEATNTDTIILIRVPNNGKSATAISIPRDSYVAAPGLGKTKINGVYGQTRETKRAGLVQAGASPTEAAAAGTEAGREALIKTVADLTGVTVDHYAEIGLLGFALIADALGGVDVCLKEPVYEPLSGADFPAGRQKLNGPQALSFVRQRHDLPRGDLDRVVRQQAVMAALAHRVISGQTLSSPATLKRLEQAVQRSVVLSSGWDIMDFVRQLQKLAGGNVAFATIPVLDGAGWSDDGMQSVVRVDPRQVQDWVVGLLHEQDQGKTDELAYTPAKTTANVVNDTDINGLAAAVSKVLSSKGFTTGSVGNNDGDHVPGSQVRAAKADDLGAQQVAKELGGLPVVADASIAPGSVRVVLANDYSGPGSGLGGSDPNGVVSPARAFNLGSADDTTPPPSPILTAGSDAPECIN

Row | SMILES | binding affinity toward ^MtbLcp1 in words (ITF assays, above background fluorescence) | Bmax | Kd | fold increase in affinity (tetrasaccharide ligand versus linker unit disaccharide (compound 1)) | fold decrease in binding affinity (additional Galf residue, versus compound 2) [fold]
1 | CCCCCCCCOC1OC(C)C(OC2OC(C(O)CO)C(O)C2O)C(O)C1O [compound 4, D-Galf-β(1→4)-L-Rhap] | no significant binding affinity (above background); also recorded: no recordable affinity | 177 and ~ 177.6 | 97.6 µM and ~97.6 µM | – | –
2 | CCCCCCCCO[C@H]1O[C@H](CO)[C@@H](O)[C@H](O[C@@H]2O[C@@H](C)[C@H](O)[C@@H](O)[C@H]2O)[C@H]1NC(C)=O [compound 1, octyl α-L-rhamnopyranosyl-(1→3)-2-acetamido-2-deoxy-α-D-glucopyranoside] | – | 1448 | 57.7 µM | – | –
3 | CCCCCCCCOC1OC(CO)C(O)C(OC2OC(C)C(OC3OC(C(CO)OC4OC(C(O)CO)C(O)C4O)C(O)C3O)C(O)C2O)C1NC(C)=O [compound 2, octyl-β-D-galactofuranosyl-(1→5)-β-D-galactofuranosyl-(1→4)-α-L-rhamnopyranosyl-(1→3)-2-acetamido-2-deoxy-α-D-glucopyranoside] | – | 1585 | 5.13 µM | ~ 10 fold | –
4 | CCCCCCCCOC1OC(CO)C(O)C(OC2OC(C)C(OC3OC(C(CO)OC4OC(C(O)COC5OC(C(O)CO)C(O)C5O)C(O)C4O)C(O)C3O)C(O)C2O)C1NC(C)=O [compound 3, octyl-β-D-galactofuranosyl-(1→6)-β-D-galactofuranosyl-(1→5)-β-D-galactofuranosyl-(1→4)-α-L-rhamnopyranosyl-(1→3)-2-acetamido-2-deoxy-α-D-glucopyranoside] | – | 1498 | 20.4 µM | – | 4
